Read-outs that look alike come from different tables or passages of the source.
Tested on: Candida albicans FP-633
Test: In vitro antimicrobial activity: MICs in mouse serum by the microdilution method
Format: cell-based
Procedure: In vitro antimicrobial activity of the object compound of Example 23, 46, 58 and 63 disclosed later was determined by MICS in mouse serum as described below.
The MICs in mouse serum were determined by the microdilution method using ICR mouse serum buffered with 20 mM HEPES buffer (pH 7.3) as a test medium. Inoculum suspension of 10^6 cells/ml were prepared by a hemocytometric procedure and diluted to obtain an inoculum size of approximately 1.0×10^3 cells/ml. Microplates were incubated at 37° C. for 24 hours in 5% CO2. The MICs was defined as the lowest concentrations at which no visible growth was observed.

MIC (FP633, microdilution in ICR mouse serum buffered with 20 mM HEPES (pH 7.3), inoculum approx. 1.0×10^3 cells/ml, 37° C., 24 hours, 5% CO2, lowest concentration with no visible growth, read-out: MIC (μg/ml), Candida albicans FP-633) [µg/mL] | SMILES | MIC (FP633, 24 h, pH 7.3, read-out: MIC (μg/ml), Candida albicans FP-633) [µg/mL]
– | CCOCCOc1ccc(-c2ccc(-c3nnc(-c4ccc(C(=O)N[C@H]5C[C@@H](O)CNC(=O)[C@@H]6[C@@H](O)[C@@H](C)CN6C(=O)[C@H]([C@H](O)CCN)NC(=O)[C@H]([C@H](O)Cc6ccc(O)c(OCCCN)c6)NC(=O)[C@@H]6C[C@@H](O)CN6C(=O)[C@H]([C@@H](C)O)NC5=O)cc4)s3)cc2)cc1 [Example 46] | < 0.2
< 0.2 | C[C@@H](O)[C@@H]1NC(=O)[C@@H](NC(=O)c2ccc(-c3nnc(-c4ccc(N5CCN([C@H]6CC[C@@H](C)CC6)CC5)nc4)s3)cc2)C[C@@H](O)CNC(=O)[C@@H]2[C@@H](O)[C@@H](C)CN2C(=O)[C@H]([C@H](O)CCN)NC(=O)[C@H]([C@H](O)Cc2ccc(O)c(OCCN)c2)NC(=O)[C@@H]2C[C@@H](O)CN2C1=O [Example 58] | –
